Reference: PMC10812132 (Journal of biomolecular screening, 2010)
Where “and” joins values, the source holds several entries; their conditions need not be identical. Equal entries are not always repeated.

Key:
[1] = system: Influenza A/Vietnam/1203/2004 (H5N1); assay type: cell-based, influenza A virus; settings: 72 h
[2] = system: influenza A/Brisbane/59/2007 (H1N1) virus; assay type: cell-based

SMILES | SI values (SI = IC50/EC50) of screening hits [1] | Reduction in M1 RNA levels vs no-drug infected MDCK cells [2]
O=S(=O)(O)c1cc(O)c(N=Nc2ccc3cccc(S(=O)(=O)O)c3c2O)c2ccccc12 [SR 22859] | > 13.8 | –
O=C(Nc1c(-c2ccccc2)nc2sccn12)c1ccccc1 [compound 786409] | > 94.6 | –
CN(C)c1cccc(C(=O)Nc2ccc3nc4n(c(=O)c3c2)CCCCC4)c1 [compound 9551353] | > 3.5 | –
NC(=O)c1ncn([C@@H]2O[C@H](CO)[C@@H](O)[C@H]2O)n1 [ribavirin] | – | 1.3 fold and 1.9 fold
